The text below walks through data of US8076061B2, “Method and composition for cancer diagnosis and treatment” (Ascentgene, Inc., priority 2007, dated 2011).

Assay [1] concerns PC4-dependent transcription (template pG5HM). The assay is described as follows: In vitro transcription assay reconstituted with purified general transcription factors. The format is biochemical. From the text: FIGS. 3A, 3B and 3C show the functional analyses of PC4 mutations in different assays.
In vitro transcription assay was reconstituted with purified general transcription factors, including TFIIA, TFIIB, TFIID, TFIIF, TFIIH and RNA polymerase II, either purified from HeLa cells or from a recombinant source. This system can be activated in a PC4 and activator-dependent manner. In addition to the transcription factors, the system also contained one activator-responsive template, a basic template (activator-independent), and ^32P-CTP. After incubation at 30° C. for 1 hr, the newly synthesized RNAs were extracted and analyzed on a denatured polyacrylamide gel and visualized by autoradiography.

A further assay deals with PC4 (Homo sapiens, UniProt P53999). As to the kind of experiment: Interaction of AH peptide with PC4. It counts as binding. The conditions noted are these: 15 amino acid peptide.
For assay [2], the system named is transcription factor Sp1 (Gal4-Sp1 fusion protein). As to the kind of experiment: Protein array assay (UPA), interaction with Sp1. It counts as binding. As to conditions: FIG. 4E. On the procedure:
(§1) The protein array assay is based on the “Universal Protein Array” method, also called UPA [Ge, H. (2000) UPA, a universal protein array system for quantitative detection of protein-protein, protein-DNA, protein-RNA and protein-ligand interactions. Nucleic Acids Res. 28, e3]. Purified proteins were validated, normalized and arrayed on a nitrocellulose sheet. Each spot was arrayed in 1 mm diameter containing 10-100 ng of protein depending on size. Targeted proteins that interacted with the PC4 proteins on the array were detected by specific antibodies such as antibodies against transcription factor TFIIA, Gal4, or Sp1. For protein-DNA interaction, probe DNA was labeled with ^32P-dCTP and the bound DNA was monitored by autoradiography.

The target of assay [3] is T1, transcription factor TFIIA (Homo sapiens, UniProt P52655+P52657).
T1 sequence (P52655 1-376): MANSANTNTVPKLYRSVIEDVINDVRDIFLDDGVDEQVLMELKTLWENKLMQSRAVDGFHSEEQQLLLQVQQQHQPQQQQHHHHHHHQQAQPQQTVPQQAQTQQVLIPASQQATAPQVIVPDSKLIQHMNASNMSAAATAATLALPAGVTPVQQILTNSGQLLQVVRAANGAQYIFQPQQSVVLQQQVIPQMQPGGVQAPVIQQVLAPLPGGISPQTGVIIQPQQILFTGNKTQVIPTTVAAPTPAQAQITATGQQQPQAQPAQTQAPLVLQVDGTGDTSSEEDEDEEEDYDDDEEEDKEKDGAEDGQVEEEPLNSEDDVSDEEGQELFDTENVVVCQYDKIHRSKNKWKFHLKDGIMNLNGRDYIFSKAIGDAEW
T1 sequence (P52657 1-109): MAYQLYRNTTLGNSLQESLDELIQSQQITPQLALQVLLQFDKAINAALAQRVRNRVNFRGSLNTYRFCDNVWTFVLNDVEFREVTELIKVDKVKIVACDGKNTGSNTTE
As to the kind of experiment: Protein array assay (UPA), interaction with TFIIA. It counts as binding. The conditions noted are these: FIG. 4C. On the procedure: as §1

In the next assay the test system is ssDNA. The assay is described as follows: Protein array assay (UPA), protein-DNA interaction. The format is binding. The conditions noted are these: FIG. 4F. On the procedure: as §1
The subject of assay [4] is 64 bp dsDNA probe from the adeno major late promoter region. As to the kind of experiment: Electrophoresis mobility shift assay (EMSA), DNA binding activity of PC4 proteins. The conditions noted are these: purified recombinant PC4 mutant vs wild type, FIG. 3B. On the procedure:
EMSA was used to determine the ds-DNA binding activity of PC4 protein and was performed in a 20 ul of reaction containing […] of purified PC4 protein and ^32P-labeled 64 bp dsDNA probe from the adeno major late promoter region. After incubated at 4° C. for 1 hr, the reaction mixture was analyzed on an 8% polyacrylamide gel. The mobilized PC4-dsDNA complex was visualized using autoradiography.

Consider “ELQEL′QELQALLQQQ (ELQELQELQALLQQQ; AH15)”, for which, in assay [1] (AH fused with a Gal4 DNA binding domain), the “transcription activation, PC4-dependent” value is reported as “dramatic transcription activation”. Also, the “interaction with PC4 (mimics an activation domain)” value with PC4 was “interacting strongly”.
On to “F77P: recombinant human PC4 protein with single amino acid change F77P”, for which the “interaction of PC4 with Sp1” value in assay [2] is listed as “enhances”. In addition, the “interaction of PC4 with TFIIA” value in assay [3] is reported as “enhances”. Also, in assay [1] (purified recombinant PC4 mutant vs wild type, FIG. 3C), the PC4 transcription activity entry is given as “abolishes”. For the same substance, the “ssDNA binding activity of PC4” value in the assay with ssDNA is on record as “critical for the ssDNA binding activity”. Besides, the “PC4's DNA binding activity” value in assay [4] was “abolishes”.
